# Results taken from PubChem BioAssay (NCI).
#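 All cell lines were grown in 96-well plates and treated with compound for 48 hours. GI50: concentration for 50% inhibition of growth. TGI denotes the concentration required for complete inhibition of growth.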
# Experiments:
# Test in all cases: growth of human tumour cells (NCI), 48 h
# [1] = test system: MDA-MB-468 breast
# [2] = test system: PC-3 prostate
# [3] = test system: OVCAR-5 ovarian
# [4] = test system: MDA-MB-435
# [5] = test system: UACC-62 melanoma
# [6] = test system: CAKI-1 renal
# [7] = test system: SN12C renal
# [8] = test system: COLO 205 colon
# [9] = test system: HS 578T breast
# [10] = test system: TK-10 renal
# [11] = test system: RPMI-8226 leukemia
# [12] = test system: EKVX NSCLC
# [13] = test system: SK-MEL-2 melanoma
# [14] = test system: SK-OV-3 ovarian
# [15] = test system: SR leukemia
# [16] = test system: ACHN renal
# [17] = test system: SF-268 CNS
# [18] = test system: NCI-H460 lung
# [19] = test system: RXF 393 renal
# [20] = test system: A498 renal
# [21] = test system: SK-MEL-5 melanoma
# [22] = test system: CCRF-CEM leukemia
# [23] = test system: U251 CNS
# [24] = test system: SF-295 CNS
# [25] = test system: SNB-19 CNS
# [26] = test system: T-47D breast
# [27] = test system: NCI-H522 lung
# [28] = test system: BT-549 breast
# [29] = test system: MCF7 breast
# [30] = test system: M14 melanoma
# [31] = test system: MALME-3M melanoma
# [32] = test system: SW-620 colon
# [33] = test system: NCI-H226 lung
# [34] = test system: HL-60(TB) leukemia
# [35] = test system: HCT-15 colon
# [36] = test system: A549 NSCLC
# [37] = test system: OVCAR-4 ovarian
# [38] = test system: HOP-92 NSCLC
# [39] = test system: 786-0 renal
# [40] = test system: SF-539 CNS
# [41] = test system: HOP-62 NSCLC
# [42] = test system: HCC-2998 colon
# [43] = test system: HCT-116 colon
# [44] = test system: HT29 colon
# [45] = test system: K-562 leukemia
# [46] = test system: LOX IMVI melanoma
# [47] = test system: OVCAR-8 ovarian
# [48] = test system: MOLT-4 leukemia
# [49] = test system: UACC-257 melanoma
# [50] = test system: SNB-75 CNS
# [51] = test system: OVCAR-3 ovarian
# [52] = test system: DU-145 prostate
# [53] = test system: MDA-MB-231 breast
# [54] = test system: KM12 colon
# [55] = test system: NCI-H23 lung
# [56] = test system: UO-31 renal
# [57] = test system: IGROV1 ovarian
# [58] = test system: SK-MEL-28 melanoma
smiles,measurement,setting,value
O=C1OC(O)[C@@H]2[C@H]1[C@H]1CC[C@@H]2O1 (stereo partly specified),GI50,[1],85.9 µM
same,TGI,[1],> 100 µM
CN(C(=O)c1ccc(C(F)(F)F)cc1)c1ccc(Oc2ccc3c(c2)cc(C(=O)N2CCN(Cc4ccc(OC(F)F)cc4)CC2)n3C)nc1,GI50,[1],< 0.01 µM
same,TGI,[1],28.6 µM
Cc1cc(/C=C/c2ccc3cc(N(C)C)ccc3[n+]2C)c(C)n1-c1ccccc1,GI50,[1],0.0486 µM
same,TGI,[1],0.23 µM
CN1CCN(CCCn2c(=O)c3sc4ncccc4c3n3nnc(-c4ccccc4)c23)CC1,GI50,[1],6.84 µM
same,TGI,[1],13.9 µM
Cc1cc(-c2ccc3nc(C4CCOCC4)n(CCOC(F)(F)F)c3c2)cn(C)c1=O,GI50,[1],0.188 µM
same,TGI,[1],2.25 µM
C=C1NC(=O)C(C(C)CC)NC(=O)C2CSCC(NC(=O)CCC(=O)O)C(=O)NC(Cc3ccccc3)C(=O)NC(C)C(=O)NC(CC(C)CC)C(=O)NC(C(=O)NC(Cc3ccccc3)C(=O)N3CCCC3C(=O)N2)C(C)OC(=O)C(CO)NC(=O)C(C(O)COC)N(C)C(=O)C(C(C)C)NC(=O)C(CC(C)CC)NC1=O (stereo unspecified),GI50,[1],< 0.014 µM
C=C1C(=O)O[C@H]2[C@H]1CC/C(COC(=O)c1c[nH]c3ccccc13)=C\CC[C@@]1(C)O[C@@H]21,GI50,[1],0.19 µM
same,TGI,[1],0.448 µM
N#C/C(=N\Nc1ccc(F)cc1)C(=O)Nc1cc(-c2ccccc2)nn1-c1ccccc1,GI50,[1],1.46 µM
same,TGI,[1],6.01 µM
OCc1ccc(-c2ccc(-c3ccc(CO)s3)o2)s1,TGI,[1],0.023 µM
O=C(CCc1nnc2sc(-c3ccc(Cl)cc3Cl)nn12)c1nc2ncccc2[nH]1,GI50,[1],2.09 µM
same,TGI,[1],4.41 µM
CCN(CC)c1ccc(-c2cc(-c3cc(OC)c(OC)c(OC)c3)nc(N3CCOCC3)c2C#N)cc1,GI50,[1],2.58 µM
same,TGI,[1],> 100 µM
COc1cc(/C=C/c2cc(O)c(C(C)=O)c(O)c2)cc2c1O[C@]1(C)CC[C@@H](O)C(C)(C)[C@H]1C2,GI50,[1],4.75 µM
same,TGI,[1],31.2 µM
CCN1CCN(c2nc(C)cc(N(CCNc3ccnc4cc(Cl)ccc34)Cc3ccc4c(c3)OCO4)n2)CC1,GI50,[1],1.55 µM
same,TGI,[1],3.34 µM
C/C(=C(/c1ccc(O)cc1)c1ccc(OCCN2CCCC2)cc1)c1ccc(Cl)cc1,GI50,[1],1.88 µM
same,TGI,[1],4.11 µM
CC[C@H](Nc1ncnc2nc[nH]c12)c1oc2ccccc2c(=O)c1-c1cccc(F)c1,GI50,[1],9.08 µM
same,TGI,[1],34.4 µM
O=C1c2cc3c(cc2-c2c1c1ccc(F)cc1c(=O)n2CCCNCCO)OCO3,GI50,[1],0.0228 µM
same,TGI,[1],0.0705 µM
COc1cc(C2C(C(=O)OCc3ccccc3)=C(C)Nc3nc4ccccc4n32)cc(OC)c1OC (stereo unspecified),GI50,[2],6.63 µM
same,TGI,[2],> 100 µM
same,GI50,[3],7.88 µM
same,TGI,[3],38.3 µM
same,GI50,[4],2.26 µM
same,TGI,[4],6.25 µM
same,GI50,[5],2.15 µM
same,TGI,[5],8.07 µM
same,GI50,[6],2.45 µM
same,TGI,[6],11.4 µM
same,GI50,[7],3.3 µM
same,TGI,[7],21.2 µM
same,GI50,[8],12.5 µM
same,TGI,[8],> 100 µM
same,GI50,[9],2.25 µM
same,TGI,[9],7.65 µM
same,GI50,[10],2.15 µM
same,TGI,[10],5.4 µM
same,GI50,[11],6.96 µM
same,TGI,[11],> 100 µM
same,GI50,[12],10.8 µM
same,TGI,[12],56.2 µM
same,GI50,[13],2.61 µM
same,TGI,[13],7.76 µM
same,GI50,[14],2.46 µM
same,TGI,[14],5.86 µM
same,GI50,[15],3.93 µM
same,TGI,[15],> 100 µM
same,GI50,[16],2.97 µM
same,TGI,[16],9.01 µM
same,GI50,[17],3.22 µM
same,TGI,[17],19 µM
same,GI50,[18],3.87 µM
same,TGI,[18],19.6 µM
same,GI50,[19],1.4 µM
same,TGI,[19],4.71 µM
same,GI50,[20],1.88 µM
same,TGI,[20],4.37 µM
same,GI50,[21],4.41 µM
same,TGI,[21],19.5 µM
same,GI50,[22],7.01 µM
same,TGI,[22],> 100 µM
same,GI50,[23],3.25 µM
same,TGI,[23],11.3 µM
same,GI50,[24],3.35 µM
same,TGI,[24],13.2 µM
same,GI50,[25],3.65 µM
same,TGI,[25],15.8 µM
same,GI50,[26],3.15 µM
same,TGI,[26],14.5 µM
same,GI50,[27],2.64 µM
same,TGI,[27],10.3 µM
same,GI50,[28],4.09 µM
same,TGI,[28],18.1 µM
same,GI50,[29],3.56 µM
same,TGI,[29],17.8 µM
same,GI50,[30],6.01 µM
same,TGI,[30],71 µM
same,GI50,[31],1.74 µM
same,TGI,[31],5.71 µM
same,GI50,[32],6.23 µM
same,TGI,[32],> 100 µM
same,GI50,[33],2.19 µM
same,TGI,[33],6.81 µM
same,GI50,[34],7.02 µM
same,TGI,[34],76.7 µM
same,GI50,[35],5.91 µM
same,TGI,[35],> 100 µM
same,GI50,[36],3.28 µM
same,TGI,[36],11.4 µM
same,GI50,[37],2.41 µM
same,TGI,[37],7.87 µM
same,GI50,[38],2.12 µM
same,TGI,[38],6.61 µM
same,GI50,[39],1.8 µM
same,TGI,[39],3.56 µM
same,GI50,[40],1.98 µM
same,TGI,[40],4.37 µM
same,GI50,[41],2.75 µM
same,TGI,[41],9.15 µM
same,GI50,[42],14.4 µM
same,TGI,[42],> 100 µM
same,GI50,[43],3.25 µM
same,TGI,[43],10.5 µM
same,GI50,[44],4.35 µM
same,TGI,[44],22.3 µM
same,GI50,[45],3.38 µM
same,TGI,[45],> 100 µM
same,GI50,[46],3.43 µM
same,TGI,[46],12.9 µM
same,GI50,[47],3.73 µM
same,TGI,[47],14.4 µM
same,GI50,[48],11.3 µM
same,TGI,[48],> 100 µM
same,GI50,[49],11.2 µM
same,TGI,[49],66.3 µM
same,GI50,[50],1 µM
same,TGI,[50],3.22 µM
same,GI50,[51],2.67 µM
same,TGI,[51],7.56 µM
same,GI50,[52],7.06 µM
same,TGI,[52],55.8 µM
same,GI50,[53],1.97 µM
same,TGI,[53],4.68 µM
same,GI50,[1],2.11 µM
same,TGI,[1],5.83 µM
same,GI50,[54],3.75 µM
same,TGI,[54],27.4 µM
same,GI50,[55],7 µM
same,TGI,[55],29 µM
same,GI50,[56],2.11 µM
same,TGI,[56],5.27 µM
same,GI50,[57],4.42 µM
same,TGI,[57],30.5 µM
same,GI50,[58],5.46 µM
same,TGI,[58],59 µM
